Measured values published in ChEMBL document CHEMBL1136170, “5-aryl thiazolidine-2,4-diones: discovery of PPAR dual alpha/gamma agonists as antidiabetic agents” (Bioorg Med Chem Lett, 2003).

biological target: T1, Peroxisome proliferator-activated receptor delta (Homo sapiens, UniProt Q03181); conditions: not given
T1 sequence (Q03181 whole entry): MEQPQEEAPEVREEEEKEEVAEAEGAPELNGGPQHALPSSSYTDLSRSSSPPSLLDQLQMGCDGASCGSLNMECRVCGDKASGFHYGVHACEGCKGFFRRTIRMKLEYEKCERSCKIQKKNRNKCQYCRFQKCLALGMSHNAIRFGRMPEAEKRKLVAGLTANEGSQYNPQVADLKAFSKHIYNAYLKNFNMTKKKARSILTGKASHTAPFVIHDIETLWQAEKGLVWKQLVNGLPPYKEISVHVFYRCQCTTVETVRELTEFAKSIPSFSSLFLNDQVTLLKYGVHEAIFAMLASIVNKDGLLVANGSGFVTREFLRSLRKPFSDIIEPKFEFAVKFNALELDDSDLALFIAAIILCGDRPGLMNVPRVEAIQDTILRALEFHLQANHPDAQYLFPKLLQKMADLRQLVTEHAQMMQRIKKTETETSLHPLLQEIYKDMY

Compound	IC50 [µM]
CCCc1cc(Oc2ccc(Cl)c(Cl)c2)ccc1OCCCOc1cccc(C2SC(=O)NC2=O)c1 (configuration not stated)	> 50
CCCc1cc(Oc2ccc(CC(C)C)cc2)ccc1OCCCOc1cccc(C2SC(=O)NC2=O)c1 (configuration not stated)	> 50
CCCc1cc(Oc2ccc(Cl)c(C)c2)ccc1OCCCOc1cccc(C2SC(=O)NC2=O)c1 (configuration not stated)	> 50
CCCc1cc(Oc2ccccc2)ccc1OCCCCOc1cccc(C2SC(=O)NC2=O)c1 (configuration not stated)	3
CCCc1cc(Oc2ccc(Cl)cc2)ccc1OCCCOc1cccc(C2SC(=O)NC2=O)c1 (configuration not stated)	> 50
CCCc1cc(Oc2ccc(OC)cc2)ccc1OCCCOc1cccc(C2SC(=O)NC2=O)c1 (configuration not stated)	> 10
CCCc1cc(Oc2ccc(O)cc2)ccc1OCCCOc1cccc(C2SC(=O)NC2=O)c1 (configuration not stated)	3.8
CCCc1cc(Oc2ccc(C(C)C)cc2)ccc1OCCCOc1cccc(C2SC(=O)NC2=O)c1 (configuration not stated)	> 50
CCCc1cc(Oc2ccc(C(C)(C)C)cc2)ccc1OCCCOc1cccc(C2SC(=O)NC2=O)c1 (configuration not stated)	> 50
O=C1NC(=O)C(c2cccc(OCCCOc3ccc(Oc4ccccc4)cc3)c2)S1 (configuration not stated)	0.19
CCCc1cc(Oc2ccc(F)c(C)c2)ccc1OCCCOc1cccc(C2SC(=O)NC2=O)c1 (configuration not stated)	> 50
CCCc1cc(Oc2ccc(F)cc2)ccc1OCCCOc1cccc(C2SC(=O)NC2=O)c1 (configuration not stated)	> 5
CCCc1cc(Oc2ccc(-c3ccccc3)cc2)ccc1OCCCOc1cccc(C2SC(=O)NC2=O)c1 (configuration not stated)	> 50
CCCc1cc(Oc2ccc(C3CCCC3)cc2)ccc1OCCCOc1cccc(C2SC(=O)NC2=O)c1 (configuration not stated)	> 50

test system: not listed separately; test: Oral bioavailability in rat (Sprague-Dawley) (fasted male) (dose 2 mg/kg); type: ADME, organism-based; conditions: in vivo

Compound	bioavailability [%]
CCCc1cc(Oc2ccc(Cl)c(Cl)c2)ccc1OCCCOc1cccc(C2SC(=O)NC2=O)c1 (configuration not stated)	19
CCCc1cc(Oc2ccc(Cl)cc2)ccc1OCCCOc1cccc(C2SC(=O)NC2=O)c1 (configuration not stated)	44
CCCc1cc(Oc2ccc(C(C)C)cc2)ccc1OCCCOc1cccc(C2SC(=O)NC2=O)c1 (configuration not stated)	6
CCCc1cc(Oc2ccc(F)c(C)c2)ccc1OCCCOc1cccc(C2SC(=O)NC2=O)c1 (configuration not stated)	20
CCCc1cc(Oc2ccc(F)cc2)ccc1OCCCOc1cccc(C2SC(=O)NC2=O)c1 (configuration not stated)	66

test system: Rattus norvegicus; test: Dose-normalized AUC measured in fasted male Sprague dawely rats when the compound was administered at a peroral dose of 2 mg/Kg; type: ADME, organism-based; conditions: in vivo, po

Compound	nAUC [uMh]
CCCc1cc(Oc2ccc(Cl)c(Cl)c2)ccc1OCCCOc1cccc(C2SC(=O)NC2=O)c1 (configuration not stated)	0.8
CCCc1cc(Oc2ccc(Cl)cc2)ccc1OCCCOc1cccc(C2SC(=O)NC2=O)c1 (configuration not stated)	1.5
CCCc1cc(Oc2ccccc2)ccc1OCCCOc1cccc(C2SC(=O)NC2=O)c1 (configuration not stated)	21.78
CCCc1cc(Oc2ccc(F)c(C)c2)ccc1OCCCOc1cccc(C2SC(=O)NC2=O)c1 (configuration not stated)	0.6
CCCc1cc(Oc2ccc(F)cc2)ccc1OCCCOc1cccc(C2SC(=O)NC2=O)c1 (configuration not stated)	3.3
CN(CCOc1ccc(CC2SC(=O)NC2=O)cc1)c1ccccn1 (configuration not stated) [ROSIGLITAZONE]	16.4

test system: not listed separately; test: Bioavailability in fasted male administration of 2 mg/Kg of compound p.o.; type: ADME, organism-based; conditions: rat, in vivo, po

Compound	bioavailability [%]
CCCc1cc(Oc2ccccc2)ccc1OCCCOc1cccc(C2SC(=O)NC2=O)c1 (configuration not stated)	62

test system: Mus musculus; test: In vivo efficacy as percent triglyceride correction in male db/db mice at 10 mg/kg oral dose; type: functional; conditions: not given

Compound	Triglyceride correction [%]
CCCc1cc(Oc2ccc(Cl)c(Cl)c2)ccc1OCCCOc1cccc(C2SC(=O)NC2=O)c1 (configuration not stated)	77
CCCc1cc(Oc2ccc(Cl)cc2)ccc1OCCCOc1cccc(C2SC(=O)NC2=O)c1 (configuration not stated)	68
CCCc1cc(Oc2ccccc2)ccc1OCCCOc1cccc(C2SC(=O)NC2=O)c1 (configuration not stated)	67
CCCc1cc(Oc2ccc(F)c(C)c2)ccc1OCCCOc1cccc(C2SC(=O)NC2=O)c1 (configuration not stated)	69
CCCc1cc(Oc2ccc(F)cc2)ccc1OCCCOc1cccc(C2SC(=O)NC2=O)c1 (configuration not stated)	76
CN(CCOc1ccc(CC2SC(=O)NC2=O)cc1)c1ccccn1 (configuration not stated) [ROSIGLITAZONE]	74

test system: not listed separately; test: Half life was measured in fasted male administration of compound 0.5 mg/Kg i.v.; type: ADME, organism-based; conditions: rat, in vivo, iv

Compound	half-life [min]
CCCc1cc(Oc2ccc(Cl)c(Cl)c2)ccc1OCCCOc1cccc(C2SC(=O)NC2=O)c1 (configuration not stated)	132
CCCc1cc(Oc2ccc(Cl)cc2)ccc1OCCCOc1cccc(C2SC(=O)NC2=O)c1 (configuration not stated)	174
CCCc1cc(Oc2ccccc2)ccc1OCCCOc1cccc(C2SC(=O)NC2=O)c1 (configuration not stated)	90
CCCc1cc(Oc2ccc(C(C)C)cc2)ccc1OCCCOc1cccc(C2SC(=O)NC2=O)c1 (configuration not stated)	198
CCCc1cc(Oc2ccc(F)c(C)c2)ccc1OCCCOc1cccc(C2SC(=O)NC2=O)c1 (configuration not stated)	198
CCCc1cc(Oc2ccc(F)cc2)ccc1OCCCOc1cccc(C2SC(=O)NC2=O)c1 (configuration not stated)	78

test system: not listed separately; test: Plasma clearance in fasted male Sprague dawely rats on administration of 0.5 mg/Kg i.v. of the compound; type: ADME, organism-based; conditions: Sprague-Dawley, rat, iv, read-out: Clp

Compound	clearance [mL/min/kg]
CCCc1cc(Oc2ccc(Cl)c(Cl)c2)ccc1OCCCOc1cccc(C2SC(=O)NC2=O)c1 (configuration not stated)	7.9
CCCc1cc(Oc2ccc(Cl)cc2)ccc1OCCCOc1cccc(C2SC(=O)NC2=O)c1 (configuration not stated)	9.7
CCCc1cc(Oc2ccccc2)ccc1OCCCOc1cccc(C2SC(=O)NC2=O)c1 (configuration not stated)	9.5
CCCc1cc(Oc2ccc(C(C)C)cc2)ccc1OCCCOc1cccc(C2SC(=O)NC2=O)c1 (configuration not stated)	6.1
CCCc1cc(Oc2ccc(F)c(C)c2)ccc1OCCCOc1cccc(C2SC(=O)NC2=O)c1 (configuration not stated)	10.5
CCCc1cc(Oc2ccc(F)cc2)ccc1OCCCOc1cccc(C2SC(=O)NC2=O)c1 (configuration not stated)	10.2

test system: Rattus norvegicus; test: Dose-normalized AUC measured in fasted male Sprague dawely rats when the compound was administered at a peroral of 2 mg/Kg; type: ADME, organism-based; conditions: in vivo, po

Compound	nAUC [uMh]
CCCc1cc(Oc2ccc(C(C)C)cc2)ccc1OCCCOc1cccc(C2SC(=O)NC2=O)c1 (configuration not stated)	0.3

test system: Mus musculus; test: In vivo efficacy as percent glucose correction in male db/db mice at 10 mg/kg oral dose; type: functional; conditions: not given

Compound	Glucose correction [%]
CCCc1cc(Oc2ccc(Cl)c(Cl)c2)ccc1OCCCOc1cccc(C2SC(=O)NC2=O)c1 (configuration not stated)	79
CCCc1cc(Oc2ccc(Cl)cc2)ccc1OCCCOc1cccc(C2SC(=O)NC2=O)c1 (configuration not stated)	86
CCCc1cc(Oc2ccccc2)ccc1OCCCOc1cccc(C2SC(=O)NC2=O)c1 (configuration not stated)	91
CCCc1cc(Oc2ccc(F)c(C)c2)ccc1OCCCOc1cccc(C2SC(=O)NC2=O)c1 (configuration not stated)	78
CCCc1cc(Oc2ccc(F)cc2)ccc1OCCCOc1cccc(C2SC(=O)NC2=O)c1 (configuration not stated)	90
CN(CCOc1ccc(CC2SC(=O)NC2=O)cc1)c1ccccn1 (configuration not stated) [ROSIGLITAZONE]	67

biological target: T2, Peroxisome proliferator-activated receptor alpha (Homo sapiens, UniProt Q07869); test: In vitro binding affinity against human Peroxisome proliferator activated receptor alpha; conditions: not given
T2 sequence (Q07869 whole entry): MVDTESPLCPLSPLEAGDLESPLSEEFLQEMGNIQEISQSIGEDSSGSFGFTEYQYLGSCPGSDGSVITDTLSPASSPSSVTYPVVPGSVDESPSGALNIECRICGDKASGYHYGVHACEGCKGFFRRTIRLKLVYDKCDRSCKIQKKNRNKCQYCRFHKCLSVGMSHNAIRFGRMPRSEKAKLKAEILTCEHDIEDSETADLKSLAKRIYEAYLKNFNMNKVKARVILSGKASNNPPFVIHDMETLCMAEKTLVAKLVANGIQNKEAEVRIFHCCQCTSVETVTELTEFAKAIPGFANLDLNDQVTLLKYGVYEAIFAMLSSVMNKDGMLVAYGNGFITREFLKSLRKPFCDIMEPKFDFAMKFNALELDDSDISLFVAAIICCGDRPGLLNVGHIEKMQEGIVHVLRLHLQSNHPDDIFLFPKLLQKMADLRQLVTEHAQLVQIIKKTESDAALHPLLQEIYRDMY

Compound	IC50 [µM]
CCCc1cc(Oc2ccccc2)ccc1OCCCOc1ccc(C2SC(=O)NC2=O)cc1 (configuration not stated)	> 50

biological target: T1, Peroxisome proliferator-activated receptor delta; conditions: not given; remark: another data set of the same source

Compound	EC50 [µM]
CCCc1cc(Oc2ccc(Cl)c(Cl)c2)ccc1OCCCOc1cccc(C2SC(=O)NC2=O)c1 (configuration not stated)	> 3
CCCc1cc(Oc2ccc(Cl)c(C)c2)ccc1OCCCOc1cccc(C2SC(=O)NC2=O)c1 (configuration not stated)	> 3
CCCc1cc(Oc2ccc(Cl)cc2)ccc1OCCCOc1cccc(C2SC(=O)NC2=O)c1 (configuration not stated)	> 3
CCCc1cc(Oc2ccc(OC)cc2)ccc1OCCCOc1cccc(C2SC(=O)NC2=O)c1 (configuration not stated)	> 3
CCCc1cc(Oc2ccc(O)cc2)ccc1OCCCOc1cccc(C2SC(=O)NC2=O)c1 (configuration not stated)	> 3
CCCc1cc(Oc2ccc(C(C)C)cc2)ccc1OCCCOc1cccc(C2SC(=O)NC2=O)c1 (configuration not stated)	> 3
CCCc1cc(Oc2ccc(F)c(C)c2)ccc1OCCCOc1cccc(C2SC(=O)NC2=O)c1 (configuration not stated)	> 50
CCCc1cc(Oc2ccc(F)cc2)ccc1OCCCOc1cccc(C2SC(=O)NC2=O)c1 (configuration not stated)	> 3
CCCc1cc(Oc2ccc(-c3ccccc3)cc2)ccc1OCCCOc1cccc(C2SC(=O)NC2=O)c1 (configuration not stated)	> 3
CCCc1cc(Oc2ccc(C3CCCC3)cc2)ccc1OCCCOc1cccc(C2SC(=O)NC2=O)c1 (configuration not stated)	> 3
